Experimental findings from patent US20220249819A1, “MICRONEEDLES, AND METHODS FOR THE MANUFACTURE THEREOF” (UNIVERSITY COLLEGE CORK - NATIONAL UNIVERSITY OF IRELAND, …, priority 2019, published 2022) are described below.

Common to all, as to assay type: physicochemical
Data set [1] is described as follows: Chemical stability before and after melting for microneedle fabrication (LC-MS, 1H and 13C NMR). The source says:
(§1) The meltable active pharmaceutical ingredient forms a stable amorphous form following melting and cooling; in this context, the term “stable” as applied to the amorphous form means that the thermodynamic tendency of the active pharmaceutical ingredient to crystallize over one year is resisted. […] In this context, minimal degradation means that at least 90% of the active pharmaceutical ingredient retains its therapeutic activity following melting and cooling. […] Also, analysis of ^1H and ^13C NMR confirmed the chemical structure of ITZ, with molecular formula C35H38Cl2N8O4. […] Which indicating the chemical stability of both ITZ melts (FIG. 5). Differential Scanning calorimetry (DSC) may be employed to determine the glass transition temperature (Tg) of a meltable drug in amorphous form DSC utilizes a heat flow technique and compares the amount of heat supplied to the test sample and a similarly heated “reference” to determine transition points. Tg is typically calculated by using a half-height technique in the transition region FIG. 6.

Data set [2] in a line: Ability to form a glassy, amorphous form following heat-melting and cooling (XRD). As for the experimental part: As used herein, the term “meltable drug” or “meltable active pharmaceutical ingredient” refers to an active pharmaceutical ingredient that can be heat-melted to a molten form and has the following properties: • solid at 25° C.; • ability to form a glassy, amorphous form following heat-melting and cooling; and • the amorphous form having a glass transition temperature typically greater than 25° C. Examples of meltable drugs include; antifungals (for example, Itraconazole, Clotrimazole, Ketoconazole, Fluconazole, or derivatives or variants thereof), corticosteroids (for example, Estradiol, betamethasone valerate or derivatives or variants thereof), Anti-inflammatory drugs (for example, Celecoxib, Diclofenac, Sulindac, Indomethacin), Antimicrobials and Antibiotics (for example, Cefuroxime […], Chloramphenicol or derivatives or variants thereof), Cardiovascular and Antihypertensives (Carvedilol, Nifedipine or derivatives or variants thereof), Autonomic nervous system and Psychiatrics medications (Droperidol or derivatives or variants thereof), Antilipidemic and Cholesterol medications (Probucol, Simvastatin or derivatives or variants thereof), Gastrointestinal medications (Famotidine, Omeprazole or derivatives or variants thereof), Respiratory medications, Endocrine medications, Immunomodulators, Oncology drugs, Renal medications, Neurologic medications and anti-migraine (Zolmitriptan or derivatives or variants thereof). Typically, the meltable drug forms a stable amorphous form following melting and cooling; in this context, the formation of amorphous structure is confirmed by the XRD technique. X-ray powder Diffraction (XRD) is an analytical technique primarily used for phase identification of a crystalline material, in which the crystalline structure causes a beam of incident X-rays to diffract into many specific directions. It works best for materials that are crystalline or partially crystalline (i.e., that have periodic structural order) but is also used to study non-crystalline materials FIG. 3.

A short description of data set [3]: Glass transition temperature (Tg) of meltable drug in amorphous form by Differential Scanning calorimetry (DSC).
Description: as §1
For orientation: Differential scanning calorimetry records heat flow against a reference as temperature is scanned.

In the case of `CCC(C)n1ncn(-c2ccc(N3CCN(c4ccc(OCC5COC(Cn6cncn6)(c6ccc(Cl)cc6Cl)O5)cc4)CC3)cc2)c1=O` (centres unmarked) [ITZ melt2], the “chemical stability of melts (1H and 13C NMR difference versus unmelted ITZ)” value in data set [1] is given as “No difference”.
As for `CCC(C)n1ncn(-c2ccc(N3CCN(c4ccc(OCC5COC(Cn6cncn6)(c6ccc(Cl)cc6Cl)O5)cc4)CC3)cc2)c1=O` (centres unmarked) [Itraconazole], the “stability before and after melting (LC-MS fragmentation pattern)” value in data set [1] (LC-MS, ITZ vs ITZ melt) was “high stability”.
Turning to `CCC(C)n1ncn(-c2ccc(N3CCN(c4ccc(OCC5COC(Cn6cncn6)(c6ccc(Cl)cc6Cl)O5)cc4)CC3)cc2)c1=O` (centres unmarked) [ITZ melt1], the “chemical stability of melts (1H and 13C NMR difference versus unmelted ITZ)” value in data set [1] is listed as “No difference”.
In the case of `CCCCC(=O)O[C@]1(C(=O)CO)[C@@H](C)C[C@H]2[C@@H]3CCC4=CC(=O)C=C[C@]4(C)[C@@]3(F)[C@@H](O)C[C@@]21C` [Betamethazone valerate], the “GLASSY AND AMORPHOPUS FORM” value in data set [2] is reported as “YES”. In addition, the “GLASS TRANSITION TEMP (TG ° C.)” value in data set [3] was 54 °C.
In the same order, the values of `CC(=O)N1CCN(c2ccc(OCC3COC(Cn4ccnc4)(c4ccc(Cl)cc4Cl)O3)cc2)CC1` (centres unmarked) [Ketoconazole] are “YES” and 46 °C.
In the same order, the values of `Clc1ccccc1C(c1ccccc1)(c1ccccc1)n1ccnc1` [Clotrimazole] are “YES” and 32 °C.
In the same order, the values of `OC(Cn1cncn1)(Cn1cncn1)c1ccc(F)cc1F` [Fluconazole] are “YES” and 32 °C.
For `COc1ccc2c(c1)c(CC(=O)O)c(C)n2C(=O)c1ccc(Cl)cc1` [Indomethacin], the “GLASSY AND AMORPHOPUS FORM” value in data set [2] is given as “YES”. The “GLASS TRANSITION TEMP (TG ° C.)” value in data set [3] came to 45 °C.
Turning to `O=C(O)Cc1ccccc1Nc1c(Cl)cccc1Cl` [Diclofenac], the “GLASSY AND AMORPHOPUS FORM” value in data set [2] is “YES”. The “GLASS TRANSITION TEMP (TG ° C.)” value in data set [3] worked out at 53 °C.
For `CC1=C(CC(=O)O)c2cc(F)ccc2/C1=C\c1ccc([S+](C)[O-])cc1` (centres unmarked) [Sulindac] the same measures were “YES” and 75 °C.
